Data on 16 compounds can be found in US9040528B2, “Chemical compounds 542” (AstraZeneca AB, priority 2008, dated 2015).

A word on the IC50: it is the concentration at which inhibition is half-maximal.

In the assay the target is Escherichia coli DNA gyrase A/B tetramer (Escherichia coli (strain K12), UniProt P0AES4+P0AES6). Nature of the assay: DNA gyrase supercoiling activity fluorescence polarisation assay. Format: biochemical. Particulars: 5 nM enzyme, relaxed plasmid, 0.3 mM ATP, ambient temperature; read-out: E. coli DNA gyrase supercoiling IC50. The method in brief: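 Supercoiling reactions quenched with 40 nM 5′-BODIPY-FL triplex-forming oligonucleotide probe in pH 3.5 NaCl/sodium acetate buffer; after 60 min, fluorescence anisotropy read (ex 485/em 535 nm). IC50 by nonlinear regression, normalised to 0.8% DMSO (100% activity) and 5 μM ciprofloxacin (0% activity).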
In general terms: Polarisation of emitted light reports the rotation of a fluorescent probe.
In the case of `C[C@@H]1CN2c3c(cc4c(C(N)=S)noc4c3F)CC3(C(=O)NC(=O)NC3=O)[C@H]2[C@H](C)O1` (relative stereo) [Intermediate 575, (2R,4S,4aS)-rel-11-fluoro-2,4-dimethyl-2′,4′,6′-trioxo-1,1′,2,3′,4,4′,4a,6′-octahydro-2′H,6H-spiro[1,4-oxazino[4,3-a][1,2]oxazolo[4,5-g]quinoline-5,5′-pyrimidine]-8-carbothioamide], the IC50 came to 1000 nM.

As to `CC1O[C@H](C)CN2c3c(cc4c(-c5cnccn5)noc4c3F)CC3(C(=O)NC(=O)NC3=O)[C@H]12` (stereo in doubt) [Example 165(a), (2R,4S,4aR)-11-fluoro-2,4-dimethyl-8-(pyrazin-2-yl)-2,4,4a,6-tetrahydro-1H,1′H-spiro[isoxazolo[4,5-g][1,4]oxazino[4,3-a]quinoline-5,5′-pyrimidine]-2′,4′,6′(3′H)-trione], the IC50 was 7800 nM.

Regarding `Cc1noc2c(F)c3c(cc12)CC1(C(=O)NC(=O)NC1=O)[C@@H]1[C@@H](C)O[C@@H](C)CN31` [Example 2(a), (2S,4R,4aR)-11-fluoro-2,4,8-trimethyl-2,4,4a,6-tetrahydro-1′H,1′H-spiro[isoxazolo[4,5-g][1,4]oxazino[4,3-a]quinoline-5,5′-pyrimidine]-2′,4′,6′(3′H)-trione], the IC50 was determined as 83000 nM.

For the compound `Cc1noc2c(F)c3c(cc12)CC1(C(=O)NC(=O)NC1=O)[C@H]1[C@H](C)O[C@H](C)CN31` [Example 2(b), (2R,4S,4aS)-11-fluoro-2,4,8-trimethyl-2,4,4a,6-tetrahydro-1H,1′H-spiro[isoxazolo[4,5-g][1,4]oxazino[4,3-a]quinoline-5,5′-pyrimidine]-2′,4′,6′(3′H)-trione], the IC50 came to 300 nM.

Take `C[C@@H]1CN2c3c(cc4c(-n5cncn5)noc4c3F)CC3(C(=O)NC(=O)NC3=O)[C@H]2[C@H](C)O1` [Example 53(a), (2R,4 S,4 aS)-11-fluoro-2,4-dimethyl-8-(1H-1,2,4-triazol-1-yl)-2,4,4a,6-tetrahydro-1H,1′H-spiro[isoxazolo[4,5-g][1,4]oxazino[4,3-a]quinoline-5,5′-pyrimidine]-2′,4′,6′(3′H)-trione]: the IC50 came to 200 nM.

With `C[C@@H]1CN2c3c(cc4c(-n5cncn5)noc4c3F)CC3(C(=O)NC(=O)NC3=O)[C@@H]2[C@@H](C)O1` [Example 53(b), (2R,4R,4aR)-11-fluoro-2,4-dimethyl-8-(1H-1,2,4-triazol-1-yl)-2,4,4a,6-tetrahydro-1H,1′H-spiro[isoxazolo[4,5-g][1,4]oxazino[4,3-a]quinoline-5,5′-pyrimidine]-2′,4′,6′(3′H)-trione], the IC50 stood at 20000 nM.

Turning to `C[C@H]1CN2c3c(cc4c(-c5ccncn5)noc4c3F)CC3(C(=O)NC(=O)NC3=O)[C@@H]2[C@@H](C)O1` [Example 74(a), (2S,4R,4aR)-11-fluoro-2,4-dimethyl-8-(pyrimidin-4-yl)-2,4,4a,6-tetrahydro-1H,1′H-spiro[isoxazolo[4,5-g][1,4]oxazino[4,3-a]quinoline-5,5′-pyrimidine]-2′,4′,6′(3′H)-trione], the IC50 is 27000 nM.

As to `C[C@@H]1CN2c3c(cc4c(-c5ccncn5)noc4c3F)CC3(C(=O)NC(=O)NC3=O)[C@H]2[C@H](C)O1` [Example 74(b), (2R,4S,4aS)-11-fluoro-2,4-dimethyl-8-(pyrimidin-4-yl)-2,4,4a,6-tetrahydro-1H,1′H-spiro[isoxazolo[4,5-g][1,4]oxazino[4,3-a]quinoline-5,5′-pyrimidine]-2′,4′,6′(3′H)-trione], the concentration for half-maximal inhibition (IC50) is 300 nM.

Consider `C[C@H]1CN2c3c(cc4c(C(F)(F)F)noc4c3F)CC3(C(=O)NC(=O)NC3=O)[C@@H]2[C@@H](C)O1` [Example 92(a), (2S,4R,4aR)-11-fluoro-2,4-dimethyl-8-(trifluoromethyl)-2,4,4a,6-tetrahydro-1H,1′H-spiro[isoxazolo[4,5-g][1,4]oxazino[4,3-a]quinoline-5,5′-pyrimidine]-2′,4′,6′(3′H)-trione], for which the IC50 is 65000 nM.

Regarding `C[C@@H]1CN2c3c(cc4c(C(F)(F)F)noc4c3F)CC3(C(=O)NC(=O)NC3=O)[C@H]2[C@H](C)O1` [Example 92(b), (2R,4S,4aS)-11-fluoro-2,4-dimethyl-8-(trifluoromethyl)-2,4,4a,6-tetrahydro-1H,1′H-spiro[isoxazolo[4,5-g][1,4]oxazino[4,3-a]quinoline-5,5′-pyrimidine]-2′,4′,6′(3′H)-trione], the IC50 worked out at 600 nM.

Consider `C[C@H]1CN2c3c(cc4c(C(F)F)noc4c3F)CC3(C(=O)NC(=O)NC3=O)[C@@H]2[C@@H](C)O1` [Example 93(a), (2S,4R,4aR)-8-(difluoromethyl)-11-fluoro-2,4-dimethyl-2,4,4a,6-tetrahydro-1H,1′H-spiro[isoxazolo[4,5-g][1,4]oxazino[4,3-a]quinoline-5,5′-pyrimidine]-2′,4′,6′(3′H)-trione], for which the concentration for half-maximal inhibition (IC50) is 56000 nM.

Turning to `C[C@@H]1CN2c3c(cc4c(C(F)F)noc4c3F)CC3(C(=O)NC(=O)NC3=O)[C@H]2[C@H](C)O1` [Example 93(b), (2R,4S,4aS)-8-(difluoromethyl)-11-fluoro-2,4-dimethyl-2,4,4a,6-tetrahydro-1H,1′H-spiro[isoxazolo[4,5-g][1,4]oxazino[4,3-a]quinoline-5,5′-pyrimidine]-2′,4′,6′(3′H)-trione], the IC50 was found to be 400 nM.

On to `C[C@H]1CN2c3c(cc4c(C(=O)NCC(F)F)noc4c3F)CC3(C(=O)NC(=O)NC3=O)[C@@H]2[C@@H](C)O1` [Example 94(a), (2S,4R,4aR)—N-(2,2-difluoroethyl)-11-fluoro-2,4-dimethyl-2′,4′,6′-trioxo-2,2′,3′,4,4a,4′,6,6′-octahydro-1H,1′H-spiro[isoxazolo[4,5-g][1,4]oxazino[4,3-a]quinoline-5,5′-pyrimidine]-8-carboxamide], for which the IC50 was found to be 51000 nM.

Consider `C[C@@H]1CN2c3c(cc4c(C(=O)NCC(F)F)noc4c3F)CC3(C(=O)NC(=O)NC3=O)[C@H]2[C@H](C)O1` [Example 94(b), (2R,4S,4aS)—N-(2,2-difluoroethyl)-11-fluoro-2,4-dimethyl-2′,4′,6′-trioxo-2,2′,3′,4,4a,4′,6,6′-octahydro-1H,1′H-spiro[isoxazolo[4,5-g][1,4]oxazino[4,3-a]quinoline-5,5′-pyrimidine]-8-carboxamide], for which the IC50 was 800 nM.

For `C[C@@H]1CN2c3c(cc4c(C(=O)N5CC(F)(F)C5)noc4c3F)CC3(C(=O)NC(=O)NC3=O)[C@H]2[C@H](C)O1` [Example 95(a), (2R,4S,4aS)-8-(3,3-difluoroazetidine-1-carbonyl)-11-fluoro-2,4-dimethyl-2,4,4a,6-tetrahydro-1H,1′H-spiro[isoxazolo[4,5-g][1,4]oxazino[4,3-a]quinoline-5,5′-pyrimidine]-2′,4′,6′(3′H)-trione], the IC50 was 1000 nM.

As to `C[C@@H]1CN2c3c(cc4c(-c5nccs5)noc4c3F)CC3(C(=O)NC(=O)NC3=O)[C@H]2[C@H](C)O1` [Example 96, (2R,4S,4aS)-11-fluoro-2,4-dimethyl-8-(thiazol-2-yl)-2,4,4a,6-tetrahydro-1H,1′H-spiro[isoxazolo[4,5-g][1,4]oxazino[4,3-a]quinoline-5,5′-pyrimidine]-2′,4′,6′(3′H)-trione], the IC50 was found to be 700 nM.
